US20140323476A1, “PEPTIDE DEFORMYLASE INHIBITORS” (priority 2011, published 2014)
≈ marks a conversion by molar mass, not a printed value.

Experiments:
pH solubility curve = format: physicochemical; conditions: thermodynamic from solid
From the text: The pH solubility curve can be seen in Table 5 below.

[1] = Hydrolytic degradation rate of reconstituted lyophile; format: physicochemical; conditions: reconstituted lyophile at 5 mg/mL
[2] = Degradation rate on storage at forced conditions; format: physicochemical; conditions: forced conditions: 50° C., ambient humidity
[3] = Dissolution rate in water, turbidity and visual inspection; format: physicochemical
Experimental: [(2R)-2-(cyclopentyl methyl)-3-(2-{5-fluoro-6-[(9aS)-hexahydropyrazino[2,1-c][1,4]oxazin-8(1h)-yl]-2-methyl-4-pyrimidinyl}hydrazino)-3-oxopropyl]hydroxyformamide was triturated with a mortar and pestle. The resulting powder (20 g, 1.0 eq, basis) was charged to a 250 mL jacketed vessel. The vessel was equipped with an overhead stirrer which was set to 60 RPM. The jacket fluid was controlled to 23° C. A solution of purified water (125 mL) and methanesulphonic acid (4.0 g, 2.7 mL, 1.0 eq) was prepared. The aqueous methanesulphonic acid solution was added to the vessel containing [(2R)-2-(cyclopentyl methyl)-3-(2-{5-fluoro-6-[(9aS)-hexahydropyrazino[2,1-c][1,4]oxazin-8(1h)-yl]-2-methyl-4-pyrimidinyl}hydrazino)-3-oxopropyl]hydroxyformamide. The resulting suspension was stirred continuously and monitored by turbidity and visual inspection. After 1 day, the turbidity and pH readings stabilized.
[(2R)-2-(cyclopentyl methyl)-3-(2-{5-fluoro-6-[(9aS)-hexahydropyrazino[2,1-c][1,4]oxazin-8(1h)-yl]-2-methyl-4-pyrimidinyl}hydrazino)-3-oxopropyl]hydroxyformamide methanesulphonate was triturated with a mortar and pestle. The resulting powder (24 g, 1.0 eq) was charged to a similar 250 mL jacketed vessel. The vessel was equipped with an overhead stirrer which was set to 60 RPM. The jacket fluid was controlled to 23° C. Purified water (125 mL) was added to the vessel containing [(2R)-2-(cyclopentylmethyl)-3-(2-{5-fluoro-6-[(9aS)-hexahydropyrazino[2,1-c][1,4]oxazin-8(1h)-yl]-2-methyl-4-pyrimidinyl}hydrazino)-3-oxopropyl]hydroxyformamide methanesulphonate. The resulting suspension was stirred continuously and monitored by turbidity and visual inspection. A clear solution was observed visually and confirmed turbidimetrically at 3 minutes.

[4] = Adsorption of labile water versus relative humidity; format: physicochemical
[5] = system: Escherichia coli 120 (AcrAB−); experiment: Antimicrobial activity assay (MIC); format: cell-based
Experimental: (§1) Whole-cell antimicrobial activity was determined by broth microdilution using the Clinical and Laboratory Standards Institute (CLSI, formerly NCCLS) recommended methodology (NCCLS Document M7-A6, “Methods for Dilution Susceptibility Tests for Bacteria that Grow Aerobically—Approved Standard Sixth Edition”, 2003). Compounds were tested in serial two-fold dilutions ranging from 64 to 0.06 μg/mL. A panel of 12 strains was evaluated in the assay. This panel consisted of the following laboratory strains: Staphylococcus aureus Oxford, Staphylococcus aureus WCUH29, Enterococcus faecalis I, Enterococcus faecalis 7, Haemophilus influenzae Q1, Haemophilus influenzae NEMC1, Moraxella catarrhalis 1502, Streptococcus pneumoniae 1629, Streptococcus pneumoniae N1387, Streptococcus pneumoniae Ery2, Escherichia coli 7623 (AcrABEFD+) and Escherichia coli 120 (AcrAB−). The minimum inhibitory concentration (MIC) was determined as the lowest concentration of compound that inhibited visible growth. A mirror reader was used to assist in determining the MIC endpoint.

[6] = system: Staphylococcus aureus WCUH29; experiment: Antimicrobial activity assay (MIC); format: cell-based; conditions: median of all results obtained, panel run 6 times
Experimental: as §1

[7] = system: Haemophilus influenzae NEMC1; experiment: Antimicrobial activity assay (MIC); format: cell-based; conditions: median of all results obtained, panel run 6 times
Experimental: as §1

[8] = system: Staphylococcus aureus Oxford; experiment: Antimicrobial activity assay (MIC); format: cell-based; conditions: median of all results obtained, panel run 6 times
Experimental: as §1

[9] = system: Moraxella catarrhalis 1502; experiment: Antimicrobial activity assay (MIC); format: cell-based; conditions: median of all results obtained, panel run 6 times
Experimental: as §1

[10] = system: Streptococcus pneumoniae 1629; experiment: Antimicrobial activity assay (MIC); format: cell-based; conditions: median of all results obtained, panel run 6 times
Experimental: as §1

[11] = system: Streptococcus pneumoniae Ery2; experiment: Antimicrobial activity assay (MIC); format: cell-based; conditions: median of all results obtained, panel run 6 times
Experimental: as §1

[12] = system: Haemophilus influenzae Q1; experiment: Antimicrobial activity assay (MIC); format: cell-based; conditions: median of all results obtained, panel run 6 times
Experimental: as §1

Enterococcus faecalis 7 = experiment: Antimicrobial activity assay (MIC); format: cell-based; conditions: median of all results obtained, panel run 6 times
Experimental: as §1

Enterococcus faecalis I = experiment: Antimicrobial activity assay (MIC); format: cell-based; conditions: median of all results obtained, panel run 6 times
Experimental: as §1

[13] = system: Streptococcus pneumoniae N1387; experiment: Antimicrobial activity assay (MIC); format: cell-based; conditions: median of all results obtained, panel run 6 times
Experimental: as §1

[14] = system: Escherichia coli 7623 (AcrABEFD+); experiment: Antimicrobial activity assay (MIC); format: cell-based; conditions: median of all results obtained, panel run 6 times
Experimental: as §1

panel of 12 strains = experiment: Antimicrobial activity assay, broth microdilution, panel of 12 strains; format: cell-based; conditions: compared with the examples from WO 03/101442
Experimental: as §1

Q: Which solubility (pH solubility curve; 0.003M methanesulphonic acid, pH 4.86, aqueous buffer) does the source give for `Cc1nc(NNC(=O)[C@H](CC2CCCC2)CN(O)C=O)c(F)c(N2CCN3CCOC[C@@H]3C2)n1` [Example 1, [(2R)-2-(Cyclopentylmethyl)-3-(2-{5-fluoro-6-[(9aS)-hexahydropyrazino[2,1-c][1,4]oxazin-8(1H)-yl]-2-methyl-4-pyrimidinyl}hydrazino)-3-oxopropyl]hydroxyformamide] here?
A: 1.93 mg/mL (≈ 4020 µM)

Q: And the solubility (pH solubility curve; 0.01M methanesulphonic acid, pH 4.33, aqueous buffer)?
A: 4.98 mg/mL (≈ 10400 µM)

Q: And the solubility (pH solubility curve; 0.03M methanesulphonic acid, pH 3.98, aqueous buffer)?
A: 13.9 mg/mL (≈ 29000 µM)

Q: What about the solubility (pH solubility curve; 0.05M methanesulphonic acid, pH 3.76, aqueous buffer) of the same molecule?
A: 22 mg/mL (≈ 45900 µM)

Q: What about the solubility (pH solubility curve; 0.1M methanesulphonic acid, pH 3.57, aqueous buffer) of the same molecule?
A: 41.7 mg/mL (≈ 87000 µM)

Q: What about the solubility (pH solubility curve; 0.3M methanesulphonic acid, pH 3.34, aqueous buffer) of the same molecule?
A: 116 mg/mL (≈ 242000 µM)

Q: What about the solubility (pH solubility curve; 0.5M methanesulphonic acid, pH 3.39, aqueous buffer) of the same molecule?
A: 193 mg/mL (≈ 402000 µM)

Q: And the solubility (pH solubility curve; 1M methanesulphonic acid, pH 3.42, aqueous buffer)?
A: 347 mg/mL (≈ 724000 µM)

Q: What about the “Degradation Rate % hydrolized/day” value ([1]; storage temperature 5° C., listed as Free base) of the same molecule?
A: 0.06 % hydrolized/day

Q: What about the “Degradation Rate % hydrolized/day” value ([1]; storage temperature 25° C., listed as Free base) of the same molecule?
A: 0.53 % hydrolized/day

Q: And the degradation rate ([2]; listed as free base)?
A: 1.7 %/month

Q: And the “time observed without complete dissolution” value ([3]; 20 g powder, 125 mL purified water with 1.0 eq methanesulphonic acid, 23° C., 60 RPM)?
A: over 7.1 days

Q: Which solubility (pH solubility curve; Purified Water, pH 3.2, equilibrium not reached) does the source give for `Cc1nc(NNC(=O)[C@H](CC2CCCC2)CN(O)C=O)c(F)c(N2CCN3CCOC[C@@H]3C2)n1` [Example 6] here?
A: > 452 mg/mL

Q: What about the “relative humidity at which it deliquesces” value [4] of the same molecule?
A: 70 % relative humidity

Q: What about the “labile water adsorbed reversibly” value ([4]; up to 70% relative humidity) of the same molecule?
A: up to 0.4 % (wt/wt)

Q: What about the “Degradation Rate % hydrolized/day” value ([1]; storage temperature 5° C., listed as Mesylate) of the same molecule?
A: 0.01 % hydrolized/day

Q: What about the “Degradation Rate % hydrolized/day” value ([1]; storage temperature 25° C., listed as Mesylate) of the same molecule?
A: 0.11 % hydrolized/day

Q: And the degradation rate ([2]; listed as mesylate)?
A: 0.2 %/month

Q: And the “time to clear solution” value ([3]; 24 g powder, 125 mL purified water, 23° C., 60 RPM)?
A: 3 min

Q: And the “dissolution and solubility compared to the free base” value ([3]; one equivalent of methanesulphonic acid and water, 160 mg/mL)?
A: faster dissolution and enhanced solubility

Q: With `CS(=O)(=O)O.Cc1nc(NNC(=O)[C@H](CC2CCCC2)CN(O)C=O)c(F)c(N2CCN3CCOC[C@@H]3C2)n1` [Example 11, [(2R)-2-(Cyclopentylmethyl)-3-(2-{5-fluoro-6-[(9aS)-hexahydropyrazino[2,1-c][1,4]oxazin-8(1H)-yl]-2-methyl-4-pyrimidinyl}hydrazino)-3-oxopropyl]hydroxyl formamide methanesulfonate polymorphic Form 2] as the molecule, how does the “labile water adsorbed reversibly” value ([4]; up to 95% relative humidity) read?
A: up to 2 % (wt/wt)

Q: Which results are given for `Cc1nc(NNC(=O)[C@H](CC2CCCC2)CN(O)C=O)c(F)c(N2CCN3CCOC[C@@H]3C2)n1` [Example 24, [(2R)-2-(Cyclopentylmethyl)-3-(2-{5-fluoro-6-[(9aS)-hexahydropyrazino[2,1-c][1,4]oxazin-8(1H)-yl]-2-methyl-4-pyrimidinyl}hydrazino)-3-oxopropyl]hydroxyformamide]?
A: MIC [5]: 0.188 mg/L (≈ 0.391 µM); MIC [6]: 0.375 mg/L (≈ 0.782 µM); MIC [7]: 1 mg/L (≈ 2.09 µM); MIC [8]: 2 mg/L (≈ 4.17 µM); MIC [9]: 0.375 mg/L (≈ 0.782 µM); MIC [10]: 0.75 mg/L (≈ 1.56 µM); MIC [11]: 0.375 mg/L (≈ 0.782 µM); MIC [12]: 0.5 mg/L (≈ 1.04 µM); MIC (Enterococcus faecalis 7): 32 mg/L (≈ 66.7 µM); MIC (Enterococcus faecalis I): 48 mg/L (≈ 100 µM); MIC [13]: 0.5 mg/L (≈ 1.04 µM); MIC [14]: 16 mg/L (≈ 33.4 µM)

Q: With `Cc1nc(NNC(=O)[C@H](CC2CCCC2)CN(O)C=O)c(F)c(N2CCN3CCOC[C@@H]3C2)n1` [[(2R)-2-(Cyclopentylmethyl)-3-(2-{5-fluoro-6-[(9aS)-hexahydropyrazino[2,1-c][1,4]oxazin-8(1H)-yl]-2-methyl-4-pyrimidinyl}hydrazino)-3-oxopropyl]hydroxyformamide] as the molecule, how does the “in vitro antibacterial activity (MIC and/or MIC90) and/or in vivo efficacy” value (panel of 12 strains) read?
A: greater in vitro antibacterial activity (MIC and/or MIC90) and/or better in vivo efficacy
